A melting point compilation (Tetko et al.; mined from patent text by program, amines drawn as free bases though some values may be those of a salt)

First: CN1c2cscc2C(=O)N(CCN2CCCC2)c2ccccc21
Second: COC(=O)c1cccc(OCCN2CCN(c3cc(Cl)nnc3Cl)CC2)c1
The melting point of the first is higher: 139 to 141 °C for the first, 105 to 107 °C for the second.

Compared with `O=C(O)CCc1ccc(-c2cccc(-c3ccnc4c(C(=O)c5cccs5)cnn34)c2)cc1`, `Cc1oc(-c2ccccc2)nc1COc1ccc(Cc2nc(-c3ccccc3)c(CCC(=O)O)[nH]2)cc1` is higher in melting point: 117 to 119 °C for the first, 193 to 196 °C for the second.

Compared with `Cc1cccc(Nc2cc(Nc3ccc(OCC#N)cc3)ncn2)c1`, `COc1ccc(C(=O)Nc2ccc3ccc(C#N)nc3n2)cc1` is higher in melting point: 207 to 210 °C for the first, 283 °C for the second.

First: O=C1C=C(c2ccc(O)cc2)S(=O)(=O)c2ccccc21
Second: O=Cc1ccc(-c2ccc(O)cc2)c2ccoc12
The melting point of the first is higher: 222 to 224 °C for the first, 184 to 185 °C for the second.

First: O=Cc1cc(F)cc(Br)c1F
Second: COC(=O)c1cc2c(cc(C=O)c3ccccc32)s1
The melting point of the first is lower: 36 to 38 °C for the first, 196 to 198 °C for the second.

Compared with `O=C(Nc1ccc(C(F)(F)F)cc1)C1=NN(c2ccc(Cl)nn2)C(c2ccc(F)cc2)C1` (configuration not stated), `O=C(Nc1ccc(Cl)c(C(F)(F)F)c1)c1ccccc1` is lower in melting point: 200 to 202 °C for the first, 130 to 131 °C for the second.

First: CCOc1ccccc1-c1ccc2cnc(Nc3ccc(N4CCN(C)CC4)cc3)nn12
Second: O=CNc1ccc(C(=O)N(CCN2CCC(C(=O)c3ccc(F)cc3)CC2)c2cccnc2)cc1
The melting point of the first is higher: 164 to 165 °C for the first, 147 to 148 °C for the second.

Compared with `Cc1c(Cl)cccc1N1CCN(CCc2nn(Cc3c[nH]cn3)c3cc4c(cc23)OCO4)CC1`, `COC(=O)c1cccc(S(=O)(=O)C2CCN(CCc3ccc(F)cc3F)CC2)c1` is lower in melting point: 176 to 177 °C for the first, 116 to 117 °C for the second.

Compared with `CCc1cccc(Nc2nc(NCc3ccc(C)o3)nc(OCC(F)(F)F)n2)c1`, `NS(=O)(=O)c1cc(CCNC(=O)c2cnc3ccccc3c2)ccc1OCCOCC(F)(F)F` is higher in melting point: 55 to 57 °C for the first, 206 to 210 °C for the second.

Compared with `CCCCCCCCCCCCCCCCCCOc1cc(OCCCCC(=O)OC)cc(N(CC(=O)O)CC(=O)O)c1`, `CCCCCCCCCCNC(=O)c1ccc(N(CC(=O)O)CC(=O)O)cc1` is higher in melting point: 91 to 94 °C for the first, 155 to 157 °C for the second.

First: Cn1nc(-c2cc(O)c(Cl)cc2F)c(Cl)c1C(F)(F)F
Second: CON(C)C(=O)c1cc(-n2c(=O)cc(C(F)(F)F)[nH]c2=O)c(F)cc1Cl
The melting point of the first is lower: 123 to 126 °C for the first, > 220 °C for the second.

First: Cc1c(NC(=O)c2ccc(OCc3ccc(F)cc3)cc2)ccc2cc(CN3CCCCC3)cnc12
Second: O=Cc1cc(=O)c(OCc2ccccc2)c(C(=O)c2ccc(Cc3ccc(F)cc3)o2)o1
The melting point of the first is higher: 159 to 160 °C for the first, 69 to 72 °C for the second.

First: Cc1c(OCCCl)cccc1[N+](=O)[O-]
Second: Cc1ccc(OCC=C(Cl)Cl)c(Cl)c1O
The melting point of the first is lower: 58 to 59 °C for the first, 70 °C for the second.

First: CN1CCC(C(=O)N2CCC(c3[nH]nc4c3C(=O)c3c(NC(=O)NN5CCOCC5)cccc3-4)CC2)CC1
Second: CC(=O)N1CCc2c(sc(C)c2CCCCN2CCC(c3noc4cc(F)ccc34)CC2)C1
The melting point of the first is lower: 148 to 150 °C for the first, 158 to 160 °C for the second.

First: CCCCC(=O)Nc1ccn(C2OC(CO)C(O)C2O)c(=O)n1 (configuration not stated)
Second: COC(=O)CCCCc1cccnc1CNC=O
The melting point of the first is higher: 132 to 135 °C for the first, 43 to 45 °C for the second.

First: CCCN1CCc2[nH]c3ccc4scc(C)c4c3c2C1
Second: CCCc1nc2ccccc2n1CC1=C(c2cccc(-c3nnn[nH]3)c2)CCC1
The melting point of the first is higher: 169 °C for the first, 116 to 119 °C for the second.

Compared with `Cc1ccccc1CN1CCN(C2=NC3(C=CC(=O)C=C3)C(c3ccccc3)=C2)CC1`, `OC(CNc1ccnc2ccccc12)c1ccccc1` (configuration not stated) is higher in melting point: 193 °C for the first, 289 to 290 °C for the second.

First: O=[N+]([O-])c1ccc2c(C3CCN(C[C@H](O)COc4cccc5[nH]ccc45)CC3)c[nH]c2c1
Second: COc1ccc(-c2c([N+](=O)[O-])c3ccc(OC)cc3c(=O)n2CC#N)cc1
The melting point of the first is higher: 212 to 214 °C for the first, 194 to 196 °C for the second.

Compared with `OC1CSC(Oc2cc(-c3cncnc3)cnc2F)C(O)C1O` (configuration not stated), `NC(=O)c1cncnc1` is lower in melting point: 204 to 205 °C for the first, 175 to 178 °C for the second.

First: O=C(NCc1ccccc1)c1ccnc(NC(=O)c2cccc(F)c2)c1
Second: CC(C)CC(=O)NCc1ccc(NC(=O)/C=C/c2cnn(C)c2-c2ccc(F)cc2)cc1
The melting point of the first is lower: 140 to 143 °C for the first, 226 to 227 °C for the second.

First: Cn1c(CN2C(=O)C3(COc4cc5c(cc43)OCCO5)c3ccccc32)nc2ccccc21 (configuration not stated)
Second: Cc1onc(-c2ccccc2)c1-c1[nH]c2ccccc2c1CCN(C)C
The melting point of the first is higher: > 240 °C for the first, 142 to 144 °C for the second.

First: CS(=O)(=O)c1ccc(Cc2ccc3ccccc3c2O)cc1
Second: CC(C)COc1c(-c2ccc(S(C)(=O)=O)cc2)cnn(-c2ccc(F)cc2)c1=O
The melting point of the first is higher: 144 to 145 °C for the first, 121 to 128 °C for the second.

First: CC(C)(CNC(=O)C(C)(C)CCC(=O)O)SN=O
Second: COC(=O)CC[C@H](NC(=O)CCC#Cc1cnc2nc(NC(=O)C(C)(C)C)nc(O)c2c1)C(=O)OC
The melting point of the first is lower: 100 to 101 °C for the first, 162 to 163 °C for the second.

First: CC(C)(C)c1cc(OCc2ccccc2C(=O)O)cc(C(C)(C)C)c1
Second: CCCCCCCNC(=O)Nc1ccc(CCc2cc(C(C)(C)C)c(O)c(C(C)(C)C)c2)cc1
The melting point of the first is higher: 173 to 174 °C for the first, 151 to 152 °C for the second.

First: CCOc1ccc(C(=O)N2CCc3nnc(NN)cc3C2)cc1
Second: CCOC(=O)c1cnoc1-c1ccc(OC)cc1
The melting point of the first is higher: 171 to 173 °C for the first, 54 to 55 °C for the second.

Compared with `O=C(Nc1c[nH]nc1C(=O)NCCO)c1ccccn1`, `Cc1cccc(C(=O)Nc2c[nH]nc2C(=O)NCC(C)(C)C#N)n1` is higher in melting point: 155 to 156 °C for the first, 250 to 251 °C for the second.

Compared with `O=C(OI(OC(=O)C(F)(F)F)C(F)(F)C(F)(F)C(F)(F)C(F)(F)C(F)(F)C(F)(F)C(F)(F)F)C(F)(F)F`, `N#Cc1cc(C(F)(F)F)cc(Cl)c1N1CN(Br)C(C(F)(F)F)=CC1=O` is higher in melting point: 68 to 70 °C for the first, 166 to 167 °C for the second.

First: COc1ccc2c(c1)C(NCc1cc(OC)c(OC)cc1N)CCO2 (configuration not stated)
Second: COc1ccc(OC)c2c1CCOC2CCl (configuration not stated)
The melting point of the first is lower: 90 to 92 °C for the first, 101 to 102 °C for the second.

First: CC1(C)C(C=CC(=O)O)C1C(=O)OC(C#N)c1ccc(F)c(Oc2ccccc2)c1 (configuration not stated)
Second: CC(C)(C)NCC(COc1cccc2c1CC(=O)N2)OC(=O)C=Cc1ccccc1 (configuration not stated)
The melting point of the first is lower: 99 °C for the first, 128 to 132 °C for the second.

First: CC(C)(ON1C(=O)c2ccccc2C1=O)C(=O)O
Second: CCOCc1nc2c(NC(C)=O)nc3ccccc3c2n1CC(C)(C)NS(C)(=O)=O
The melting point of the first is higher: 133 to 135 °C for the first, 75 to 76 °C for the second.

First: CC(=O)CCC(=O)c1ccc(Cl)cc1
Second: O=C(CCl)c1ccc2c(C(=O)CCl)ccc3c2c1CC3
The melting point of the first is lower: 165 to 167 °C for the first, 184 to 187 °C for the second.

First: Cc1cc(NS(=O)(=O)c2cccs2)c2[nH]c(C(=O)NCCSC(c3ccccc3)(c3ccccc3)c3ccccc3)cc2c1
Second: CS(=O)(=O)OCCCC(c1ccccc1)c1ccccc1
The melting point of the first is higher: 214 to 215 °C for the first, 85 to 88 °C for the second.

First: CCc1cc2c(O)c(C#N)c(=O)oc2cc1C
Second: N#CCc1cc2c(-c3ccccc3)c(CC(=O)Nc3ccc(Cl)cc3C(F)(F)F)c(=O)oc2cc1Cl
The melting point of the first is lower: 224 to 226 °C for the first, 247 to 248 °C for the second.

Compared with `COC(=O)CC[C@H](NC(=O)c1ccc(NCC(=O)OCc2ccccc2)cc1)C(=O)OC`, `CCOC(=O)c1cn(NCC=O)c2c(OCc3ccccc3)c(F)c(F)cc2c1=O` is higher in melting point: 82 °C for the first, 180 to 181 °C for the second.

First: O=c1[nH]c(=S)[nH]cc1Cc1cccc(Cl)c1
Second: CC(C)n1nc(-c2sc(N)nc2-c2cccc(Cl)c2)ccc1=O
The melting point of the first is lower: 192 to 195 °C for the first, 236 to 237 °C for the second.

First: CC(C(=O)N(C)C)n1c(-c2ccc(Cl)cc2)nc2cccnc21 (configuration not stated)
Second: Cc1c(CC(N)=O)c2cc(OCc3nc4ccccc4s3)ccc2n1Cc1ccc(Cl)cc1
The melting point of the first is lower: 124 to 126 °C for the first, 169 to 170 °C for the second.

First: Nc1scc2c(C(=O)O)nn(-c3ccc(Br)cc3)c(=O)c12
Second: Cc1ccc(O)c(-c2nc(-c3cc(C)ccc3O)n(-c3ccc(C(=O)O)cc3)n2)c1
The melting point of the first is higher: > 300 °C for the first, 268 to 269 °C for the second.

Compared with `CCCc1ccc2c(c1)C=Cc1cc(C)ccc1C2c1cn(-c2ccnc(N(C)CC(=O)O)n2)c(=O)[nH]c1=S` (configuration not stated), `c1ccc(-c2ccc(-c3nc(COc4ccc(CCCn5ccnc5)cc4)co3)s2)cc1` is lower in melting point: 145 to 150 °C for the first, 128 to 129 °C for the second.

First: [N-]=[N+]=NCC(O)c1cc(S(N)(=O)=O)ccc1F (configuration not stated)
Second: CS(=O)(=O)Nn1c(=O)[nH]c2cc(C(F)(F)F)c(-c3ccc(C#N)cc3)cc2c1=O
The melting point of the first is lower: 86 °C for the first, 145 to 147 °C for the second.

Compared with `CCC(COC(C)=O)Nc1c(-c2c(F)cc(F)cc2F)c(Cl)nc2ncnn12` (configuration not stated), `COC(=O)c1c(C)cc2cc(OC)c(OC)cc2c1-c1ccnc(Br)c1` is higher in melting point: 39 to 42 °C for the first, 148 to 150 °C for the second.

Compared with `C=CC[C@@H]1C[C@@H](COc2ccc(CCCCNC(=O)OC(C)(C)C)cc2)N(CCc2ccc3ccccc3c2)C1=O`, `O=C(O)CCc1ccc(CCN2CCN(S(=O)(=O)c3ccccc3)CC2)cc1` is higher in melting point: 79 to 83 °C for the first, 177 to 178 °C for the second.

Compared with `C[C@H]1CCCC(C)(C)[C@@H]1C(=O)O`, `CC(C)(C)OC(=O)N1CCC2(CC1)C(=O)N(CC(=O)O)CN2C1CCCCC1` is higher in melting point: 44 to 54 °C for the first, 173 to 174 °C for the second.

First: O=Cc1ccc(Sc2nc3cc(Cl)c(Cl)cc3[nH]2)o1
Second: NC1=NC2=NN(c3ccco3)NC2=C2N=CN(Cc3ccc(F)cc3)N12
The melting point of the first is lower: 170 °C for the first, 266 to 268 °C for the second.

Compared with `CCOC(=O)c1ccc(C#Cc2ccc3c(c2)C(C)(C)CCC3(C)C)cc1`, `COC(=O)c1ccc(Cc2cn(C)c3ccc(NC(=O)NC4CCCC4)cc23)c(OC)c1` is higher in melting point: 137 to 138 °C for the first, 210 to 212 °C for the second.

First: CC(C)OC(=O)C1=C(COCCN2C(=O)c3ccccc3C2=O)Nc2c(C#N)cnn2C1c1cccc(F)c1F (configuration not stated)
Second: COc1ccc(Cl)cc1CC1CNC(=O)CN(C(=O)Nc2cccc(NC(C)=O)c2)C1=O (configuration not stated)
The melting point of the first is higher: 176 to 177 °C for the first, 130 to 131 °C for the second.

Compared with `COc1cc(OC)c2c(=O)[nH]c(-c3cc(C)c(CCCN4CCCC4)c(C)c3)nc2c1`, `OCc1nn(-c2ccccc2)c2c1CCC2` is lower in melting point: 194 to 196 °C for the first, 94 to 95 °C for the second.

First: CCOC(=O)c1csc(-n2ccnc2)n1
Second: OCc1ccc(I)nc1
The melting point of the first is higher: 107 to 109 °C for the first, 102 °C for the second.

Compared with `S=C(NCCCC1(Cl)CC=CS1)Nc1ccccn1` (configuration not stated), `CCC(C#N)=C1CCN(c2ccc(N3C[C@H](CNC(=O)C(Cl)(Cl)Cl)OC3=O)cc2F)CC1` is higher in melting point: 116 to 122 °C for the first, 150 to 152 °C for the second.

With `Cc1c(C)c(NC(=O)CC(C)(C)C)c2c(c1C)C(=O)C(C)(C)O2` the melting point was 158 to 159 °C.
